Where a SMILES comes first, the peptide text is derived from it. The star is where a group is joined. Cbz = O=C(OCc1ccccc1)*
Legend:
proteasome = experiment: Stability of DA1 protein in cell-free Arabidopsis protein extracts with ATP, Western analysis; type: biochemical; conditions: GST-DA1 incubated with Arabidopsis protein extracts and ATP; Western with DA1 antibody
Description: This is supported by the observation that detection of DA1 protein with a good specific antibody in plant extracts is very difficult. We therefore tested the stability of DA1 protein in Arabidopsis using DA1 protein expressed in E. coli and cell-free protein extracts from Arabidopsis. Full length DA1 protein expressed and purified as an N-terminal GST fusion protein, was incubated with Arabidopsis protein extracts and ATP, and subjected to Western analysis using a specific DA1 antibody. […] The UIM motifs of DA1 are predicted, based on knowledge of UIM function in animal cells, to be involved in ubiqutination. It may be that DA1 is ubiquitinated and targeted for degradation as part of the mechanism of growth control.

DA1 gene = DA1 gene expression after phytohormone treatment, quantitative RT-PCR; type: in vivo, Arabidopsis thaliana
From the text: (§1) (A) DA1 gene structure, showing the mutated sites of da1-1, sod1-1, sod1-2, and sod1-3 alleles. The start codon (ATG) and the stop codon (TGA) are indicated. Closed boxes indicate the coding sequence and lines between boxes indicate introns. T-DNA insertion sites (da1-ko1, da1-ko2 and da1-ko3) in DA1 gene are shown. (B to G) DA1 promoter activity monitored by pDA1::GUS transgene expression. GUS staining in seedlings (B and C), an embryo (D), roots (E), and petals (F and G). (H and I) The flowers of Col-0 (H) and da1-ko1dar1-1 double mutant (I). (J) Siliques of Col-0 (left) and da1-ko1dar1-1 double mutant (right). (K) Petal area of Col-0, da1-ko1, dar1-1, da1-ko1dar1-1 double mutants. […] 7 d-old WT seedlings were treated with 10 μm ABA for 2, 4, 6, 18 and 30 hours. (M and N) Wild type Col-0 and da1-1 seeds were grown on MS medium with 2 μm ABA under constant light conditions. […] Scale bars: 1 mm (B, H, I, M, and N), 50 μm (C and E), 0.5 mm (C and J), 0.1 mm (F and G), 0.5 cm (0).
(§2) Relatively high levels of GUS activity were detected in proliferating tissues (FIG. 3c-f). In addition, the DA1 promoter is also active in roots (FIG. 3b, c). Given the effects of hormones on organ growth, we tested whether any major classes of phytohormones (abscisic acid, jasmonic acid, ethylene, auxin, cytokinin, gibberellin, brassinosteroids and glucose) could influence transcription of DA1 gene. […]

da1-1 mutant seedlings = experiment: Seedling establishment and growth on MS medium with ABA, da1-1 mutant; type: in vivo, Arabidopsis thaliana
From the text: as §1, §2

[1] = test system: wild type Col-0 seedlings; experiment: Seedling growth on MS medium with ABA, wild type; type: in vivo, Arabidopsis thaliana; conditions: 4 d-old seedlings transferred to MS medium with 5 μm ABA for 3 weeks
From the text: as §1

SMILES	effect on degradation of DA1 protein (proteasome)	expression of DA1 (DA1 gene; 7 d-old WT seedlings treated with 10 μm ABA for 2, 4, 6, 18 and 30 hours, quantitative RT-PCR)	expression level of the DA1 gene (transcription) after phytohormone treatment (DA1 gene; major classes of phytohormones tested)	growth of da1-1 mutant seedlings (da1-1 mutant seedlings; 4 d-old seedlings transferred to MS medium with 5 μm ABA for 3 weeks)	seedling establishment of da1-1 mutant (da1-1 mutant seedlings; seeds grown on MS medium with 2 μm ABA under constant light)	growth of wild type Col-0 seedlings [1]
CC(C)C[C@@H](C=O)NC(=O)[C@H](CC(C)C)NC(=O)[C@H](CC(C)C)NC(=O)OCc1ccccc1 [MG132] (Cbz-Leu-Leu-Leu-aldehyde)	abolish this degradation					
CC1=CC(=O)CC(C)(C)[C@@]1(O)/C=C/C(C)=C\C(=O)O [ABA, abscisic acid]		slowly induced	induced slowly	continue to grow	ABA-insensitive seedling establishment	inhibit the growth
